Series [1] in a line: Solubility of insulin in aqueous solutions containing a delivery agent. The procedure: The solubility of insulin was investigated in aqueous solutions containing varying amounts of the delivery agent compound sodium 4-CNAB. The aqueous solution containing delivery agent was adjusted to pH 1 by the addition of 1N HCl and excess insulin was added to the acidified solution. Thereafter, the pH of the solution was increased by the addition of increments of 1N NaOH. Vials containing the suspensions were left without shaking or sonicating for 1-2 hours. The supernatant was analyzed for insulin and sodium 4-CNAB using an HPLC method and the pH was recorded. […] All of these experiments were performed at room temperature.

For series [2] the following is noted: for Solubility: pH 6.8.
Protocol: Excess insulin was added to buffer solutions at pH values of 1, 2, 3, 4, 5, 6, 6.8, and 7.4. Vials containing the solutions were shaken in a constant temperature water bath, and visually observed at regular time intervals. Samples were taken at 2 hours, 4 hours, and 24 hours and analyzed by a stability-indicating HPLC method.
Series [3] in a line: Dissolution of insulin pellet (USP Dissolution Type II paddle). Type of series: physicochemical. Here is the method:
A 300 mg pellet of insulin was prepared in a die. The surface area of the pellet available to the dissolution medium was 0.484 cm^2. The pellet was compressed at 1200-1400 lbs on a Carver press to form discs. The die was then attached to the shaft of a dissolution apparatus (USP Dissolution Type II (Paddle) made by Vankel). The die was rotated at 100 rpm and then immersed in 500 mL of degassed dissolution medium maintained at 37° C. Dissolution experiments were conducted in water and in aqueous solutions containing sodium 4-CNAB. Samples of the solutions were taken over two hours and analyzed by HPLC. FIGS. 3 and 4 show dissolution profiles of insulin in deionized (DI) water and in 10 mg/mL sodium 4-CNAB solution, respectively.

Some results are limits rather than exact numbers.

Regarding `O=C(O)CCCNC(=O)c1ccc(Cl)cc1O` [Treatment 4-CNAB, 4-[(2-hydroxy-4-chlorobenzoyl)amino]butanoate], the Insulin in series [1] (delivery agent 5 mg/mL, pH of delivery agent solution 6.4, room temperature) is listed as 0.5 mg/mL; in series [1] (delivery agent 10 mg/mL, pH 6.45, room temperature), 1 mg/mL; in series [1] (delivery agent 50 mg/mL, pH 6.26, room temperature), 11 mg/mL; in series [1] (delivery agent 50 mg/mL, pH 6.49, room temperature), 44 mg/mL; in series [1] (delivery agent 100 mg/mL, pH 6.45, room temperature), more than 110 mg/mL; in series [1] (delivery agent 100 mg/mL, pH 6.71, room temperature), 86 mg/mL. Further, the Insulin in series [1] (delivery agent 150 mg/mL, pH 6.83, room temperature) is reported as 187 mg/mL; in series [1] (delivery agent 200 mg/mL, pH 6.79, room temperature), more than 135 mg/mL.
Molecule `O=C(O)CCCCCCCNC(=O)c1ccccc1O` [SNAC, N-(8-[2-hydroxybenzoyl]-amino) caprylic acid] yielded an Insulin in series [1] (delivery agent 150 mg/mL, pH 7.9, room temperature) of more than 200 mg/mL.
For “insulin type #2: recombinant human zinc insulin obtained from Eli Lilly Co.”, the Solubility in series [2] is more than 2000 µg/mL.
“Insulin: insulin (recombinant human insulin) whose solubility and dissolution were tested” registered an Insulin in series [1] (None (DI water), pH 6.3, room temperature) of 1.14 mg/mL. Further, the “rate of insulin dissolution” value in series [3] (10 mg/mL sodium 4-CNAB dissolution media versus deionized water, 37° C., 100 rpm) was “significantly greater”. Moreover, the “insulin levels in dissolution media” value in series [3] (50 mg/ml sodium 4-CNAB dissolution media, HPLC) is recorded as “below the detection limits”.
In series [1] (delivery agent 250 mg/mL, pH 3.9, room temperature), `OCCN(CCO)CCCCCCCCOc1ccccc1O` [HPOD, 8-(2-hydroxyphenoxy)octyldiethanolamine] yielded an Insulin of more than 50 mg/mL.
As for “insulin type #1: recombinant human zinc insulin obtained from Diosynth France”, in series [2] (not observed at pH 1, 2, and 7.4 where dissolution was very rapid for both), the “dissolution rate, visual observation” value is reported as “dissolved faster than insulin type #2”. Besides, in series [2], the Solubility entry is recorded as “greater than 4 mg/mL”.

Source of the values: patent US8927015B2, “Formulations for delivering insulin” (Emisphere Technologies, Inc., priority 2006, dated 2015).
